Targets include BMPR1A (UniProt P36894); CLK1 (UniProt P49759); INSR (UniProt P06213); IRAK1 (UniProt P51617); MELK (UniProt Q14680); UniProt O75460; UniProt P23443; UniProt Q9BVS4.
What all share (assay): pIC50, kinobeads binding competition
Conditions in all cases: cell material: Jurkat lysate

A further experiment concerns the target T1, SGK3 (UniProt Q96BR1).
T1 sequence (whole entry): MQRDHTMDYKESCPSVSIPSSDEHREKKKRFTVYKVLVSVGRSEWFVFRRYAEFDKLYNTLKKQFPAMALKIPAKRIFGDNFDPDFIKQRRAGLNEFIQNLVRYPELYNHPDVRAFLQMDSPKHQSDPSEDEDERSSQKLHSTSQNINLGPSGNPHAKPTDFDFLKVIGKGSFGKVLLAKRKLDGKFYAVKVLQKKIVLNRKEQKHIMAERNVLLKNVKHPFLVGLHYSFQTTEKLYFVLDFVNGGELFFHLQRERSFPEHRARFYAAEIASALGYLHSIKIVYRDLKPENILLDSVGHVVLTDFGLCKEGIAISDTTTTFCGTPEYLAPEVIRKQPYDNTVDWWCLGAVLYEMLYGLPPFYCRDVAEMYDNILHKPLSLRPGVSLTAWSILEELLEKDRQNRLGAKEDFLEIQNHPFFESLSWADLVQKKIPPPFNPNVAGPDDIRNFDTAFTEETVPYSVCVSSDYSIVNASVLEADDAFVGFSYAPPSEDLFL

The next experiment addresses T2, SNRK (UniProt Q9NRH2).
T2 sequence (whole entry): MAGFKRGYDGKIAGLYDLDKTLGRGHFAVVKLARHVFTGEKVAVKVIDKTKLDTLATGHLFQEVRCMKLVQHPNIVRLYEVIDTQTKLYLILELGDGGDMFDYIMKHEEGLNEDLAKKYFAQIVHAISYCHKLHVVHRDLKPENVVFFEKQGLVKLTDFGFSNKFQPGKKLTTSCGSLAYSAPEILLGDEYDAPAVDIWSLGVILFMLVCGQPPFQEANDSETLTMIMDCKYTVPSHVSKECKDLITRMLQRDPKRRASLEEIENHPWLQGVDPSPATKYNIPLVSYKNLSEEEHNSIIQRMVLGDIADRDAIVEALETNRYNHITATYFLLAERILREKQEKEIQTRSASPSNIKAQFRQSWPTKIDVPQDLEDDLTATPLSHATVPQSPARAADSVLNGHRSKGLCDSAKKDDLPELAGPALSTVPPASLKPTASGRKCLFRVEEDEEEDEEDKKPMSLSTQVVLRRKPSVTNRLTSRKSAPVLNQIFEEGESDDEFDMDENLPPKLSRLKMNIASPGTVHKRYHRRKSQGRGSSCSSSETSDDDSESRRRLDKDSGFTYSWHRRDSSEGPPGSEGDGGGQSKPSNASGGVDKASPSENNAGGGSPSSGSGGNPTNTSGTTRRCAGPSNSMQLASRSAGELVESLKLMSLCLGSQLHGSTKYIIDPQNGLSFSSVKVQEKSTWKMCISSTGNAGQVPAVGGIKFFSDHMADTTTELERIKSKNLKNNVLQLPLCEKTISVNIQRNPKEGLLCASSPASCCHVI

For another experiment, the target named is T3, TP53RK (UniProt Q96S44).
T3 sequence (whole entry): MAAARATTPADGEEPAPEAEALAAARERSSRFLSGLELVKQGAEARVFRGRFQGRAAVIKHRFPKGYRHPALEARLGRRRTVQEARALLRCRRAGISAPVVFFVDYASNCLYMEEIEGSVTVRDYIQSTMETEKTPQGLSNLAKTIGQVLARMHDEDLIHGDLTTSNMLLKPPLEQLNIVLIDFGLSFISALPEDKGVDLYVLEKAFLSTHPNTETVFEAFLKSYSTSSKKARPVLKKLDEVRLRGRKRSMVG

For the next experiment, the target named is T4, UniProt Q13043.
T4 sequence (whole entry): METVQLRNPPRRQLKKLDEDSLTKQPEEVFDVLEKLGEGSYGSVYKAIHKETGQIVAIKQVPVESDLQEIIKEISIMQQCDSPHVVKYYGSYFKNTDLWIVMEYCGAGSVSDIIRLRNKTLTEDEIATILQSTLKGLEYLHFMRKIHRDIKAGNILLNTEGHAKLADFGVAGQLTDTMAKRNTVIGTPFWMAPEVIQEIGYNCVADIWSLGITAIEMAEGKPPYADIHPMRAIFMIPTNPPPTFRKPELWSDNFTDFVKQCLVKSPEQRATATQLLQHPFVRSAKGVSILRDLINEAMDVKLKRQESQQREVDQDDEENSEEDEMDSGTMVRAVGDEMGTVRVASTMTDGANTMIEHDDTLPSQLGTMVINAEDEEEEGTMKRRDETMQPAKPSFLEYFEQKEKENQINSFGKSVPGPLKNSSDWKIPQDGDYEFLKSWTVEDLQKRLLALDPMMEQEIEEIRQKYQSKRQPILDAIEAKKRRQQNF

The target of a further experiment is T5, UniProt Q8TBX8.
T5 sequence (whole entry): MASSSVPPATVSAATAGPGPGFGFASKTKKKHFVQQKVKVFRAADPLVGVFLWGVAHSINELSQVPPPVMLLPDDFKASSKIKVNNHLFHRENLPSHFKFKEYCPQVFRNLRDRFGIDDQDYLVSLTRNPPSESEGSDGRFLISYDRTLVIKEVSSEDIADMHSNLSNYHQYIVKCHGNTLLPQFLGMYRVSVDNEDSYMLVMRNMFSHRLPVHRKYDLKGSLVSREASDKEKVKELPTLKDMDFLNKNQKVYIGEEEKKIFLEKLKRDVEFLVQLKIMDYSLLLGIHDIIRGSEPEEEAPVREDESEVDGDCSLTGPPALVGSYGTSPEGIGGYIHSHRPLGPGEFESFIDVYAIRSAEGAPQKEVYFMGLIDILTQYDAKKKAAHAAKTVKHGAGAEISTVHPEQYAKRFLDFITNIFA

Each structure is given as a SMILES string.

MELK, sequence (Q14680 whole entry, looked up): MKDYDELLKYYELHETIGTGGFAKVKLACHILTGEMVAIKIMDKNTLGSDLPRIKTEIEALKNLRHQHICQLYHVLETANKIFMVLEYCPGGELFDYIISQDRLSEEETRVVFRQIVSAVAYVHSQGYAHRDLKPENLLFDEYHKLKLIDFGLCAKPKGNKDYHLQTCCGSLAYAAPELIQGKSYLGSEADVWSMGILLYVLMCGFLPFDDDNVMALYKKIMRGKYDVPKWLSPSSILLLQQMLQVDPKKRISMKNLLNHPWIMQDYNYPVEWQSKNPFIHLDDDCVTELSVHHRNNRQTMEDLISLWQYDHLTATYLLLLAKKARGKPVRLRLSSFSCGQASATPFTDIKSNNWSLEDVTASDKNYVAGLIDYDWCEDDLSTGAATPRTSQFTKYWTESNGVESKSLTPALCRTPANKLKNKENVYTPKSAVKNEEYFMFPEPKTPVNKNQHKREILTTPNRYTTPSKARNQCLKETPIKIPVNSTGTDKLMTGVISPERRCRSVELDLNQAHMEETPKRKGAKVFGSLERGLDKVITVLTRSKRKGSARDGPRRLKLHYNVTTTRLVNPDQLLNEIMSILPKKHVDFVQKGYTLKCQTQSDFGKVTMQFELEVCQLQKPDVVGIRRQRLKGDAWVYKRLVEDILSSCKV
UniProt P23443, sequence (P23443 whole entry, looked up): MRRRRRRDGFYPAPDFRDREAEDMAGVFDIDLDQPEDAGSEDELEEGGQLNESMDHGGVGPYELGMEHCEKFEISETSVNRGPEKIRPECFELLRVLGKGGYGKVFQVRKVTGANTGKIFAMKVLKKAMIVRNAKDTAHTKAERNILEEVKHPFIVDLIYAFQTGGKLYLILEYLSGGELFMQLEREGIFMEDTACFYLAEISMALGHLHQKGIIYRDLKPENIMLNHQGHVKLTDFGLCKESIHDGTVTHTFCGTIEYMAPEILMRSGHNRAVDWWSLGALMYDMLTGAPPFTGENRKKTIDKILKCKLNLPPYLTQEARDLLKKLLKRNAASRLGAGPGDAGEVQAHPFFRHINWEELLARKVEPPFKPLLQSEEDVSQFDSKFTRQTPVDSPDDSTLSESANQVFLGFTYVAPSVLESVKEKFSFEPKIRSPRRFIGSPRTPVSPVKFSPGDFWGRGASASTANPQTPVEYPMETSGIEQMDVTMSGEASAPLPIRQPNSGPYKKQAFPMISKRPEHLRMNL
BMPR1A, sequence (P36894 whole entry): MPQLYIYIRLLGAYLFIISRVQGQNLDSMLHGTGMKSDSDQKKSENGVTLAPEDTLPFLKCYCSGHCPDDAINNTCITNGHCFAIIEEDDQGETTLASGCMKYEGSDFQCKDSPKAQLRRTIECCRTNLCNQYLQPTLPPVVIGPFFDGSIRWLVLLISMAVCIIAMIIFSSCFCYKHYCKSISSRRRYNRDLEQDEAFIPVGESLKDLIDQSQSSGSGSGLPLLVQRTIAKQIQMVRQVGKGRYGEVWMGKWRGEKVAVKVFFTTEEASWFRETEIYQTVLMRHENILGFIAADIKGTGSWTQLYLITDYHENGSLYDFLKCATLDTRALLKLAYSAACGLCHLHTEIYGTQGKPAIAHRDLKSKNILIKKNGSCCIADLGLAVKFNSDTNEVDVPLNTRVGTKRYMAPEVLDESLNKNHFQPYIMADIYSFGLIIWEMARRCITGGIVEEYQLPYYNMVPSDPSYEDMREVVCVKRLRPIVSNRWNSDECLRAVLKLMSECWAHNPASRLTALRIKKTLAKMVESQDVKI
INSR, sequence (P06213 whole entry): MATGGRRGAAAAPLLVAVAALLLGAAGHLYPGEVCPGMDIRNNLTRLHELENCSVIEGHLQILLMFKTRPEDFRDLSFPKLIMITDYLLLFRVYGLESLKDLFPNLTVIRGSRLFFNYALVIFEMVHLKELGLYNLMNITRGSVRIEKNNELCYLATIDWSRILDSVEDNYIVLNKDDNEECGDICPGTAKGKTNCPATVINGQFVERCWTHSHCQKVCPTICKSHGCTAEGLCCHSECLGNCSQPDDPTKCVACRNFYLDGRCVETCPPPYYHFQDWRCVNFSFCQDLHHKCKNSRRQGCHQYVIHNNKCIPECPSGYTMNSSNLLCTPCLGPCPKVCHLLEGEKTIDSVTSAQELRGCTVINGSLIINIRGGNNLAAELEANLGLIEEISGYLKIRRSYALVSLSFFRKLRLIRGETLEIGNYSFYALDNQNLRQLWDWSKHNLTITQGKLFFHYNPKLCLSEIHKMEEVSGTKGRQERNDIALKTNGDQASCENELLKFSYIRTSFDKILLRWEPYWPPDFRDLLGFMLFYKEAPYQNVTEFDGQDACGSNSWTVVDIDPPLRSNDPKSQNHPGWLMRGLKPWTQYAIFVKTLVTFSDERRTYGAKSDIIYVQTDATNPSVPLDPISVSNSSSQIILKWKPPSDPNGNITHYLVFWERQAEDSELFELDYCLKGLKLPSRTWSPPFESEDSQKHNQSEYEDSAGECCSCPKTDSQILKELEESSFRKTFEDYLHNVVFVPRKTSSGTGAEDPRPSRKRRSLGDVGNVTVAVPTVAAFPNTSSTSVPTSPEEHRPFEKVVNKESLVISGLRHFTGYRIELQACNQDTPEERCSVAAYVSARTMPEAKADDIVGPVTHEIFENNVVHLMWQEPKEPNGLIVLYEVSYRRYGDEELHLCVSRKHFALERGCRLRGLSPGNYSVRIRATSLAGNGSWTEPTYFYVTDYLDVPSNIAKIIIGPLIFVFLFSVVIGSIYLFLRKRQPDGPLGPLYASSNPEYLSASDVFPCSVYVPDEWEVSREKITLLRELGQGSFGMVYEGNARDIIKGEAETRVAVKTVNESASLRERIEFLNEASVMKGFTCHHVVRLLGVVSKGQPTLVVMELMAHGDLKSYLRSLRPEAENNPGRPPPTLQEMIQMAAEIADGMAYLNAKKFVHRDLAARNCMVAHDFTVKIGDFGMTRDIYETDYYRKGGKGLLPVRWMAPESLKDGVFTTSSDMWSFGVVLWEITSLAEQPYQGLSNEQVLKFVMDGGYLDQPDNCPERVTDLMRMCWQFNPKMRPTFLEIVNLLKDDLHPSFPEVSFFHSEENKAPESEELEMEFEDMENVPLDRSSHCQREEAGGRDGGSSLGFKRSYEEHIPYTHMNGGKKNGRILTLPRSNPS
UniProt Q9BVS4, sequence (Q9BVS4 whole entry, looked up): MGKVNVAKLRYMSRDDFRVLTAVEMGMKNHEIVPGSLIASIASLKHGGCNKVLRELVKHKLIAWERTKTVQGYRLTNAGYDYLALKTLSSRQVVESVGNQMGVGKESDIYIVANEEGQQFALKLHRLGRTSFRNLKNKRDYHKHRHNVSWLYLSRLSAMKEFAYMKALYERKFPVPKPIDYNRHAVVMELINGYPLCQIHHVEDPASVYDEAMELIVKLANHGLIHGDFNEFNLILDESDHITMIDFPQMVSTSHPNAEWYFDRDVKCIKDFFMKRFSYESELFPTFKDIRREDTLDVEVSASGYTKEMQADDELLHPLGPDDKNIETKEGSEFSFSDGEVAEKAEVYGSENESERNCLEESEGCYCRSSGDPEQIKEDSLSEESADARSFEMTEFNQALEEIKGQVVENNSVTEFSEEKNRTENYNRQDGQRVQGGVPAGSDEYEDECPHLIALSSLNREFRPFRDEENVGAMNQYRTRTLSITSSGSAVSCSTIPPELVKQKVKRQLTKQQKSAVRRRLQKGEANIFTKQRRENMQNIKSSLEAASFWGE
CLK1, sequence (P49759 whole entry, looked up): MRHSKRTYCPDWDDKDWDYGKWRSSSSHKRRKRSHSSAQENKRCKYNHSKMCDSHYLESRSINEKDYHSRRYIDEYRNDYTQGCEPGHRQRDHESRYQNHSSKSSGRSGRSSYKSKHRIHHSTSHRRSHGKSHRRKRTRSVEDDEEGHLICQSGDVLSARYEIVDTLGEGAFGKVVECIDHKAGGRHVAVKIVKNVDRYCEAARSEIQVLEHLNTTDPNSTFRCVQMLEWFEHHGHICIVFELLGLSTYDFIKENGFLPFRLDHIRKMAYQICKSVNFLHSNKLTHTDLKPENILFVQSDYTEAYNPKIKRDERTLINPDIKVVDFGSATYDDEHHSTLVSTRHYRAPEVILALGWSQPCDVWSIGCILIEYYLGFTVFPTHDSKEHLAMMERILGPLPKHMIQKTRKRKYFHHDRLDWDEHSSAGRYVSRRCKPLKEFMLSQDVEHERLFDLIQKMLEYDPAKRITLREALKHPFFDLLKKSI
IRAK1, sequence (P51617 whole entry, looked up): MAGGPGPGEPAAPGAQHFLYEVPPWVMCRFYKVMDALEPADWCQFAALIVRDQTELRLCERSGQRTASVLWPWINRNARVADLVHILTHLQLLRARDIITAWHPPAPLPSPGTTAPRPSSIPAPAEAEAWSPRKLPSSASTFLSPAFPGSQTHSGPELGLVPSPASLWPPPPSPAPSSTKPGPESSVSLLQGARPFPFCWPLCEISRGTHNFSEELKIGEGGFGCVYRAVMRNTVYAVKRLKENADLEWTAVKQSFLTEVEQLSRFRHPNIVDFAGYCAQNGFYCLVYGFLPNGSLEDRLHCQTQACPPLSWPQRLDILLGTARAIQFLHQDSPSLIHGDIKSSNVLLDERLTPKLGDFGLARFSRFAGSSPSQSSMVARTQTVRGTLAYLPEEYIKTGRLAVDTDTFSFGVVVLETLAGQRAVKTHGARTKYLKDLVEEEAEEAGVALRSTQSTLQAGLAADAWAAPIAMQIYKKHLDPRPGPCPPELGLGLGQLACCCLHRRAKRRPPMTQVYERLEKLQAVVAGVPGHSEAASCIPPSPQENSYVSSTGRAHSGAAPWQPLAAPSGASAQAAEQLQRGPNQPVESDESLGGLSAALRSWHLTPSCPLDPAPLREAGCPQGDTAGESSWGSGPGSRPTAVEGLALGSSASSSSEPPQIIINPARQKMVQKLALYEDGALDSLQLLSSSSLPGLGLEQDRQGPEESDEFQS

A word on the pIC50: it is −log10 of the IC50, conventionally taken in molar units. For `CCc1cnn2c(NCc3ccc[n+]([O-])c3)cc(N3CCCC[C@H]3CCO)nc12` [dinaciclib], the pIC50 at BMPR1A is less than 4.52; on CLK1 it was 5.13; at INSR it was less than 4.52; on IRAK1 it was less than 4.52; at MELK it was less than 4.52; at SGK3, less than 4.52. Also, the pIC50 on SNRK, at TP53RK, on UniProt O75460, on UniProt P23443, on UniProt Q13043 and on UniProt Q8TBX8 was less than 4.52 each time. On UniProt Q9BVS4, this molecule returned a pIC50 of less than 4.52.

The record behind these values is the supplement of paper PMC12076712.
